Results reported in PubChem BioAssay (NCI).
Where “and” joins values, the source holds several entries; their conditions need not be identical. Equal entries are not always repeated.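 Cultured in 96-well plates, cells were exposed to test compound for 48 hours across five concentrations. Here, GI50 denotes the concentration required for 50% inhibition of growth. TGI: total growth inhibition.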

Columns and labels:
Assay in all cases: NCI anticancer screen, dose series, 48 h
[1] = test system: CCRF-CEM leukemia
[2] = test system: HT29 colon
[3] = test system: K-562 leukemia
[4] = test system: KM12 colon
[5] = test system: NCI-H460 lung
[6] = test system: NCI-H522 lung
[7] = test system: RPMI-8226 leukemia
[8] = test system: UACC-257 melanoma
[9] = test system: HOP-92 NSCLC
[10] = test system: DU-145 prostate

| SMILES | TGI [1] [µM] | TGI [2] | TGI [3] | TGI [4] | TGI [5] | TGI [6] | TGI [7] | TGI [8] | GI50 [1] [µM] | GI50 [9] [µM] | TGI [9] | GI50 [2] [µM] | GI50 [3] [µM] | GI50 [4] [µM] | GI50 [5] [µM] | GI50 [6] [µM] | GI50 [7] [µM] | GI50 [8] [µM] | TGI [10] [µM] | GI50 [10] [µM] |
| --- | --- | --- | --- | --- | --- | --- | --- | --- | --- | --- | --- | --- | --- | --- | --- | --- | --- | --- | --- | --- |
| CN(C)C(=S)/N=c1\ss/c(=N\C(=S)N(C)C)n1-c1ccc(Cl)c(Cl)c1 | > 100 | > 100 µM | > 100 µM | > 100 µM | > 100 µM | > 100 µM | > 100 µM | > 100 µM |  |  |  |  |  |  |  |  |  |  |  |  |
| COC(=O)/C(C#N)=C1\CCC(O)N1 (centres undefined) | > 100 | > 100 µM | > 100 µM | > 100 µM | > 100 µM | > 100 µM | > 100 µM | > 100 µM |  |  |  |  |  |  |  |  |  |  |  |  |
| N.N.N.N.[Cl-].[Co+3].[N-]=[N+]=[N-].[N-]=[N+]=[N-] | > 100 | > 100 µM | > 100 µM | > 100 µM | > 100 µM | > 100 µM | > 100 µM | > 100 µM | 91.6 | > 100 | > 100 µM | > 100 | > 100 | > 100 | > 100 | > 100 | > 100 | > 100 |  |  |
| COc1cc2ccc3c4cc(OC)c(OC(C)C)cc4cnc3c2cc1OC | > 100 | > 100 µM | > 100 µM | > 100 µM | > 100 µM | > 100 µM | > 100 µM | > 100 µM |  |  | > 100 µM |  |  |  |  |  |  |  |  |  |
| O=c1[nH]cnc2cccc(Cl)c12 | > 100 | > 100 µM | > 100 µM | > 100 µM | > 100 µM | > 100 µM |  | > 100 µM |  |  |  |  |  |  |  |  |  |  | > 100 |  |
| COc1ccc(-c2c[nH]c(=S)n2-c2ccc(OC)cc2)cc1 |  | > 50 µM | > 50 µM | > 50 µM | > 50 µM | > 50 µM | > 50 µM | > 50 µM |  |  |  | > 50 | > 50 | > 50 | > 50 | > 50 | 20.4 | > 50 | > 50 | > 50 |
| CC1=NN(C(=O)CC(=O)N(C(=O)c2ccccc2Cl)c2ccc(C)cc2)C(=O)C1N=Nc1ccc([N+](=O)[O-])cc1 (centres undefined) | > 70.7 | > 100 µM | > 80.8 µM | > 100 µM | > 76.5 µM | > 100 µM | > 70.3 µM | > 100 µM |  |  | > 78.5 µM |  |  |  |  |  |  |  |  |  |
| COc1cc2cccc(N=Cc3cccc(OC)c3OC(C)C)c2cc1OC | > 100 | 50.2 µM | 89 µM | 57.2 µM | > 100 µM | 39.7 µM | 37.7 µM | 52.4 µM |  |  |  |  |  |  |  |  |  |  |  |  |
| C[C@@]12CCCc3coc(c31)C(=O)c1cc3c(cc12)C(=O)C=CC3=O | 7.74 | > 1 µM and 44.9 µM | > 1 µM and 78.2 µM | > 1 µM and 41.8 µM | > 1 µM and 41.3 µM | > 1 µM and 19.5 µM | > 1 µM and 35 µM | > 1 µM and 29.9 µM |  | > 1 | > 1 µM and 14.6 µM | > 1 | > 1 | > 1 | > 1 | > 1 | > 1 | > 1 |  |  |
| O=C1[C@H]2ON(c3ccccc3)C(c3ccc(Cl)cc3)[C@H]2C(=O)N1c1ccc(Cc2ccc(N3C(=O)[C@@H]4ON(c5ccccc5)C(c5ccc(Cl)cc5)[C@@H]4C3=O)cc2)cc1 (some centres undefined) | > 100 | > 100 µM | > 100 µM | > 100 µM | > 100 µM | > 100 µM | > 100 µM | > 100 µM |  |  |  |  |  |  |  |  |  |  |  |  |
| C=CCNC(=O)N(CCC)CCCCC(NC(C)=O)C(=O)NCc1ccccc1 (centres undefined) | > 100 | > 100 µM | > 100 µM | > 100 µM | > 100 µM | > 100 µM | > 100 µM | > 100 µM |  |  | > 100 µM |  |  |  |  |  |  |  |  |  |
| Cc1ccc(S(=O)(=O)NCCNc2nccc(-c3c(-c4ccc(F)cc4)nc4sccn34)n2)cc1 |  |  |  |  | > 100 µM | > 100 µM |  |  |  |  |  |  |  |  | 3.5 | 6.95 |  |  |  |  |
| COc1ccc2ncn(-c3cc(O[C@H](C)c4ccccc4Cl)c(C(N)=O)s3)c2c1 | 6.35 | 9.13 µM | > 25 µM | 5.23 µM | 3.51 µM | 0.221 µM | 8.71 µM | > 22.7 µM | 0.00861 | 0.404 | 8.01 µM | 0.00813 | 0.0145 | 0.00907 | 0.0133 | 0.0165 | 0.016 | 0.444 |  |  |
| O=C(Nc1cc(Cl)ccc1Cl)C(=O)C(c1cnc2ccccc2n1)[N+](=O)[O-] (centres undefined) | > 100 | > 100 µM | > 100 µM | > 100 µM | > 100 µM | > 100 µM | > 100 µM | > 100 µM |  |  | > 100 µM |  |  |  |  |  |  |  |  |  |
